Values quoted from earlier work, collected in patent US6284262A, “Compact dosage unit for buccal administration of a pharmacologically active agent” (priority 1999, dated 2001).

Columns and labels:
[1] = tested on: albumin and other proteins; conditions: plasma, adult men
[2] = tested on: sex hormone-binding protein; conditions: plasma, adult men

C[C@]12CC[C@H]3[C@@H](CCC4=CC(=O)CC[C@@]43C)[C@@H]1CC[C@@H]2O [testosterone]
bound to albumin and other proteins [1]: the remainder | free, or unbound testosterone [1]: about 2% | testosterone bound to sex hormone-binding protein [2]: Approximately 40% | absorption after oral administration: well absorbed | therapeutic blood levels via oral administration: not possible to achieve therapeutic blood levels | degradation during passage through the liver and intestine (oral): quickly degraded
